The values below come from patent publication US20230355815A1, “ACTIVE DELIVERY OF RADIOTRACERS ACROSS THE BLOOD BRAIN BARRIER” (The Board of Trustees of the Leland Stanford Junior …, priority 2021, published 2023).

One assay concerns TREM1. The settings on record: animal models of sepsis; cited from earlier work.
The target in the next assay is T1, TSPO (Mus musculus, UniProt P50637).
T1 construct: endogenous in cells; host or cells: tissues of living C57BL/6 mice (EAE and naive)
The assay is described as follows: TSPO-PET/CT imaging of EAE mice. Format: in vivo. The method, then:
Mice were categorized as pre-symptomatic (pre; score 0, >1 g weight loss in 48 h), low (score 0.5-2), or high EAE (score 2.5-4.5). Anti-TREM1 monoclonal antibody (mAb) was DOTA-conjugated and radiolabeled with ^64Cu. PET/CT imaging was performed 20 hours post-injection of [^64Cu]TREM1-mAb (95-120 μCi, >99% RCP) or 50-60 min after TSPO-targeted radiotracer [^18F]GE-180 (231-269 μCi, >99% RCP). Following PET, mice were perfused to remove unbound intravascular tracer and radioactivity in central nervous system (CNS) tissues was measured using a gamma counter.
TREMl-PET is a more sensitive tool for detecting neuroinflammation in EAE compared to TSPO-PET Next, we examined the sensitivity of TREMl-PET compared to the gold standard approach for assessing neuroinflammation in vivo for both preclinical and clinical research—TSPO-PET. Naive and EAE mice were injected with [^18F]GE-180. a highly sensitive and selective tracer for TSPO in rodents (26), and PET images were acquired 50-60 min following tracer administration. […] Specifically, peritoneum adhesions encompassing the spleen. mesentery, and stomach, as well as abdominal granulomatous inflammation, have been reported in mice injected with CFA (27). […]
[^18F]GE-180 was synthesized as previously described (46). Chemical and radiochemical purity were determined by reverse-phase analytical HPLC (Phenomenex Luna column, 150×4.6 mm. particle size 3 μm. pore size 100 A) using a 11 min 50-95% gradient (0.1 mg/mL ascorbic acid in H2O:MeCN. monitored by gamma detection and UV at 254 and 280 nm). […]
PET images were analyzed using Vivoquant software (version 4.0. inviCRO) and visualized using Inveon Research Workspace (IRW, version 4.0: Siemens). Brain uptake was quantified as previously described (47). lo brief, a 3-dimensional mouse brain atlas was utilized to obtain tracer uptake values in a priori regions of interest (whole brain, pons. medulla. and cerebellum). Cervical/thoracic and lumbar spinal cord quantification was obtained via segmentation and exclusion of the vertebral column. […]

In a further assay the test system is TREM1 signaling. Put plainly: LP17 treatment study in EAE mice. Type of assay: in vivo, mouse. The settings on record: vs saline. On the procedure: Spinal cords were further analyzed via high-resolution autoradiography. Flow cytometry was performed on CNS tissues using TREM1, CD45, CD11b, CD11c, CD3, and Ly-6G to delineate immune cell populations. Quantitative PCR was performed to assess changes in mRNA expression. LP17, a decoy receptor peptide known to attenuate TREM1 signaling, was administered daily to pre EAE mice (10, 15 mg/kg, or saline i.p) for 10 days.
Blocking TREMi signaling genetically and pharmacologically attenuates EAE severity. To explore the biological relevance of TREMl in EAE development and progression, we assessed disease trajectory in KO EAE compared to WT EAE animals. While 83% of WT mice developed EAE, only 40% of Trem/KO mice developed symptoms during the same timeframe. […] Next, to determine if blocking TREM I signaling during disease development could have therapeutic effects, we treated WT EAE animals with LP 17 (10 or 15 mg/kg)—a 17 mer peptide decoy receptor, previously shown to attenuate TREMi signaling (25, 38)—and compared disease progression to vehicle (saline) treated mice.
LPI 7 peptide (sequence: […] […]) was synthesized by the Protein and Nucleic Acid Core Facility at Stanford University as previously described (J 9). WT EAE mice were induced with EAE and monitored daily as previously outlined. […] LP 17 or saline was administered daily (i.p) for 10 days and disease level was recorded.

T1 sequence (P50637 whole entry): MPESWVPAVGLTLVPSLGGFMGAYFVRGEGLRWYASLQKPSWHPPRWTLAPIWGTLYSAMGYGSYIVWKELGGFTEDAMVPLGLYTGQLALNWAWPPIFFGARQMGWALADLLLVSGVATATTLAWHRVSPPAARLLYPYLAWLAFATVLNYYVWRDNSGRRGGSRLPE

Consider `CC(C)[C@]12O[C@H]1[C@@H]1O[C@]13[C@]1(O[C@H]1C[C@H]1C4=C(CC[C@@]13C)C(=O)OC4)[C@@H]2O` [triptolide], for which the “pro-inflammatory mediators and survival” value in the assay with TREM1 is “reduce pro-inflammatory mediators and increase survival”.
In the case of `CCN(CC)C(=O)[C@H]1CCCc2c1c1c(OC)cccc1n2CC[18F]` [[^18F]GE-180], the “TSPO-PET signal in the brain” value on TSPO (EAE vs naive mice) is reported as “no significant differences”. Also, the “TSPO-PET uptake in cervical/thoracic and lumbar spinal cords” value on TSPO (EAE vs naive mice, 50-60 min post-injection) is “significantly reduced uptake”. The CNS tracer binding entry at TSPO (control mice (CFA emulsion without MOG) vs naive untouched mice) is “decreased”.
Regarding “LP17: 17 mer peptide decoy receptor attenuating TREM1 signaling; sequence LQVTDSGL YRCVIYHPP (LQVTDSGLYRCVIYHPP)”, the EAE disease severity result in the assay on TREM1 signaling (10 mg/kg daily i.p. for 10 days from pre EAE stage) is given as “not”; in the assay with TREM1 signaling (15 mg/kg daily i.p. for 10 days from pre EAE stage) it was “Significant attenuation of disease severity”. Besides, in the assay on TREM1, the “pro-inflammatory mediators and survival” value is “reduce pro-inflammatory mediators and increase survival”.
